Measurements: article PMC11318023, “Discovery of VU6008677: A Structurally Distinct Tricyclic M4 Positive Allosteric Modulator with Improved CYP450 Profile” (ACS Medicinal Chemistry Letters, 2024)
Read-outs that look alike come from different tables or passages of the source.

Experiments:
[1] = Binding in plasma from rat, equilibrium dialysis; format: in vitro ADME; settings: read-out: rat fu,plasma
[2] = Binding in brain homogenate from rat, equilibrium dialysis; format: in vitro ADME; settings: rat, brain homogenate, rat brain homogenates, read-out: rat fu,brain
[3] = Intrinsic clearance in rat liver microsomes (substrate depletion), predicted hepatic clearance; format: in vitro ADME; settings: for CLint scaled at 1 µM: pH 7.4, rat liver microsomes; for CLhep, rat (predicted hepatic clearance): predicted from rat microsomal CLint
[4] = target: T1, CYP 2D6 (Homo sapiens, UniProt P10635); test: CYP450 inhibition in pooled human liver microsomes, CYP-specific probe substrates; format: in vitro ADME; settings: pooled HLM, NADPH, CYP-specific probe substrate
T1 sequence (P10635 whole entry): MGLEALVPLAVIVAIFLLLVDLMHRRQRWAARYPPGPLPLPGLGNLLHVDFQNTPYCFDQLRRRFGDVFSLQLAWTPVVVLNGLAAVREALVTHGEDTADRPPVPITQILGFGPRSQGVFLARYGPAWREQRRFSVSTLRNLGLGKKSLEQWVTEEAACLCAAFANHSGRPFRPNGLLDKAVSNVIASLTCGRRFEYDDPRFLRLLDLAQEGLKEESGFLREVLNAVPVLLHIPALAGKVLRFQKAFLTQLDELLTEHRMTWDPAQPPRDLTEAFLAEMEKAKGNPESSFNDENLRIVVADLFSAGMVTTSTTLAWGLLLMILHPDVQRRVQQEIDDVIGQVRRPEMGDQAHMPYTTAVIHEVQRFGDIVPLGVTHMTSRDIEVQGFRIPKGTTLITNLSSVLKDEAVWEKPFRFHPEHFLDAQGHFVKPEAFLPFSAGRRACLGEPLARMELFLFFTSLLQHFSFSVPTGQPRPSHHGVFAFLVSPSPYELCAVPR

[5] = target: T2, human M2 (hM2) (Homo sapiens, UniProt P08172); test: Calcium mobilization assay, hM2/Gqi5-CHO cells, with EC20 acetylcholine; format: cell-based
T2 construct: expressed in transfected cells
T2 sequence (P08172 1-466): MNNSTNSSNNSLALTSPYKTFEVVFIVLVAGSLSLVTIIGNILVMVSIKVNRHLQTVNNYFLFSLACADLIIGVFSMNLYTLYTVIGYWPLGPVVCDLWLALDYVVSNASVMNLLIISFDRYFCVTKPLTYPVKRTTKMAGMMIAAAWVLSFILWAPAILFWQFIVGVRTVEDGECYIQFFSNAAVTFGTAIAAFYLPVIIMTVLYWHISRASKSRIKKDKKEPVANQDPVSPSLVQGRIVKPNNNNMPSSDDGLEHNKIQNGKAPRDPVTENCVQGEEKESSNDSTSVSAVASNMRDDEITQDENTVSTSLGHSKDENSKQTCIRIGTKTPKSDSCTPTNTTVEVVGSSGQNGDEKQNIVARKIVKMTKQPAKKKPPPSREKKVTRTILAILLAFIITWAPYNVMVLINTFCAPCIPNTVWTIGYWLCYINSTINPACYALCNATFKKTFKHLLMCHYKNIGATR
Source text: buffer remained in the cell plates. […] After establishment of a […]

[6] = target: CYP 3A4 (Homo sapiens, UniProt P08684); test: CYP450 inhibition in pooled human liver microsomes, CYP-specific probe substrates; format: in vitro ADME; settings: pooled HLM, NADPH, CYP-specific probe substrate
Sequence of CYP 3A4 (P08684 whole entry): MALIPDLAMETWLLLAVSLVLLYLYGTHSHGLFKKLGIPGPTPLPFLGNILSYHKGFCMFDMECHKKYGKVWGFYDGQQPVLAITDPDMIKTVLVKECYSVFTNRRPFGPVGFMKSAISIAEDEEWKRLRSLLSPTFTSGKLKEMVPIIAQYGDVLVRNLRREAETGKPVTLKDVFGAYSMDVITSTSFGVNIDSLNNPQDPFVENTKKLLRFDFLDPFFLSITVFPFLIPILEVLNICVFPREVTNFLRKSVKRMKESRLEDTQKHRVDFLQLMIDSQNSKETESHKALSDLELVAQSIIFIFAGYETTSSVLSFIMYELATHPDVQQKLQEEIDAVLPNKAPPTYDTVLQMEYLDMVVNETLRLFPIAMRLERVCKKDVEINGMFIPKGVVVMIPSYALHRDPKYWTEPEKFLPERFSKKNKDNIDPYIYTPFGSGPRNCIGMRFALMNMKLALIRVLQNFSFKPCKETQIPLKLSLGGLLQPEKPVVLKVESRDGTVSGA

[7] = Binding in plasma from human, equilibrium dialysis; format: in vitro ADME; settings: human, plasma, read-out: human fu,plasma
[8] = Intrinsic clearance in human liver microsomes (substrate depletion), predicted hepatic clearance; format: in vitro ADME; settings: for CLint scaled at 1 µM: pH 7.4, human liver microsomes; for CLhep, human (predicted hepatic clearance): predicted from human microsomal CLint
[9] = target: T3, human M4 (hM4) (Homo sapiens, UniProt P08173); test: Calcium mobilization assay, hM4/Gqi5-CHO cells, with EC20 acetylcholine (PAM); settings: hM4/Gqi5-CHO cells, calcium mobilization; for hM4 pEC50 / hM4 %ACh Max: EC20 acetylcholine; for hM4 %ACh Max: maximum response; for EC50: read-out: hM4 EC50, EC20 fixed concentration of acetylcholine
T3 sequence (P08173 1-479): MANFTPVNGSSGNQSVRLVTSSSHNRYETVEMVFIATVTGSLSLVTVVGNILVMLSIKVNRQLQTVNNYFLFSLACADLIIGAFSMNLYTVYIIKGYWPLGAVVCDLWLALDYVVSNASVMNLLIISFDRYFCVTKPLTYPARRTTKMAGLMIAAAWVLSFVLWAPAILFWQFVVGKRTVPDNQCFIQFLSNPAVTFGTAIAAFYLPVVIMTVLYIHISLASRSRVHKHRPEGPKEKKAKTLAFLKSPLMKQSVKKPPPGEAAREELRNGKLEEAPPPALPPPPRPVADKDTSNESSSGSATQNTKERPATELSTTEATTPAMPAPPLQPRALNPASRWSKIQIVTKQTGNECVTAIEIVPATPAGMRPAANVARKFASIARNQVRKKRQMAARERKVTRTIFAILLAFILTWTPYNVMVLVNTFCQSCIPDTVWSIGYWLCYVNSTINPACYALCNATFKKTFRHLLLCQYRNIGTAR

[10] = target: T4, CYP 1A2 (Homo sapiens, UniProt P05177); test: CYP450 inhibition in pooled human liver microsomes, CYP-specific probe substrates; format: in vitro ADME; settings: pooled HLM, NADPH, CYP-specific probe substrate
T4 sequence (P05177 1-516): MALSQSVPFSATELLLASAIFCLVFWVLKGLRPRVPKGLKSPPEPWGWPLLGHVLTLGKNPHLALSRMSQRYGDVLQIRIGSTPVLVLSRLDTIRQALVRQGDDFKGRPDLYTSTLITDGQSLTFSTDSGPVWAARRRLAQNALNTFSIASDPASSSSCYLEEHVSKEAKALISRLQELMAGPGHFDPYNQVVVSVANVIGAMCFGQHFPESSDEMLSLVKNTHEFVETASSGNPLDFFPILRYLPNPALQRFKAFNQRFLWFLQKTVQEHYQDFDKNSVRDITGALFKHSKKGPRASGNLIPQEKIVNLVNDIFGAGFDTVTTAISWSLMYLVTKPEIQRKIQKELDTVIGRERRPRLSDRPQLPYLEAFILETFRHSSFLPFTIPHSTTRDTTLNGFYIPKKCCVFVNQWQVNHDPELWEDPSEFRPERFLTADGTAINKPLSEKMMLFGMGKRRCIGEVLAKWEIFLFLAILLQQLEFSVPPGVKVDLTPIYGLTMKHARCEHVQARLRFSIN

[11] = target: T5, CYP 2C9 (Homo sapiens, UniProt P11712); test: as above; format: in vitro ADME; settings: pooled HLM, NADPH, CYP-specific probe substrate
T5 sequence (P11712 whole entry): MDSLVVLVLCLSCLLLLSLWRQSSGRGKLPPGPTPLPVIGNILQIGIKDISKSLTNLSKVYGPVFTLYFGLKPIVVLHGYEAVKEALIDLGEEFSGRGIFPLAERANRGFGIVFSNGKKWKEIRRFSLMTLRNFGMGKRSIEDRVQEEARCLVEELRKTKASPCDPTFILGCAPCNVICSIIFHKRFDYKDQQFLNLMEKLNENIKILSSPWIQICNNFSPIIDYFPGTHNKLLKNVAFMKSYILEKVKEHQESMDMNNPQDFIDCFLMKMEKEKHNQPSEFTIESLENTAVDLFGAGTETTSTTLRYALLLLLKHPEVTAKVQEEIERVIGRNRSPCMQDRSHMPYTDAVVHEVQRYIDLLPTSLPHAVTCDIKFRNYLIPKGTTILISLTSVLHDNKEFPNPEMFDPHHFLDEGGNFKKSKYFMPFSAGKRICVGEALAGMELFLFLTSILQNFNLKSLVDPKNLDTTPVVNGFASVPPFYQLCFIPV

[12] = design: method as in PMID 18772318, PMID 24442096, PMID 34710625; settings: human; Figure 1, earlier M4 PAMs; cited from earlier work
[13] = design: method as in PMID 18772318, PMID 24442096, PMID 34710625; settings: Figure 1, earlier M4 PAMs; cited from earlier work
[14] = design: method as in PMID 18772318, PMID 24442096, PMID 34710625; settings: rat; Figure 1, earlier M4 PAMs; cited from earlier work
[15] = design: method as in PMID 18772318, PMID 24442096, PMID 34710625; settings: rat brain; Figure 1, earlier M4 PAMs; cited from earlier work
[16] = target: T5, CYP 2C9; design: method as in PMID 23177787; settings: Figure 1; read-out: Cyp P450 Inhibition (2C9); cited from earlier work
[17] = target: T1, CYP 2D6; design: method as in PMID 23177787; settings: Figure 1; read-out: Cyp P450 Inhibition (2D6); cited from earlier work
[18] = target: T4, CYP 1A2; design: method as in PMID 23177787; settings: Figure 1; read-out: Cyp P450 Inhibition (1A2); cited from earlier work

Row | fraction unbound at 6 h, 5 µM [1] | fraction unbound at 6 h, 1 µM [2] | CLint scaled at 1 µM [3] [mL/min/kg] | CLhep, rat (predicted hepatic clearance) [3] [mL/min/kg] | IC50 [4] [nM] | IC50 [6] [nM] | fraction unbound at 6 h, 5 µM [7] | CLint scaled at 1 µM [8] [mL/min/kg] | CLhep, human (predicted hepatic clearance) [8] [mL/min/kg] | hM4 pEC50 [9] | hM4 %ACh Max [9] [%] | EC50 [9] [nM] | IC50 [10] [nM] | IC50 [11] [nM] | Compound | rat CLhep [13] [mL/min/kg] | fu,plasma (r) [14] | fu,b (r) [15] | also measured
1 | 0.039 | 0.003 | 789 | 64 | > 30000 | 24300 | 0.01 | 57 | 15 | 7.60 | 110 | 25 | < 100 | > 30000 | Cc1c(Cl)cnc2sc3c(NC4CC4)ncnc3c12 [Compound 15g] | – | – | – | EC50 [5]: 480 nM; hM2 % ACh Max [5]: 40%
2 | 0.042 | 0.011 | 420 | 60 | 7900 | 28800 | 0.013 | 52 | 15 | 7.19 | 88 | 65 | < 100 | 19200 | Cc1nc2sc3c(NC4CC4)nncc3c2c(C)c1Cl.Cl [Compound 22i] | – | – | – | hM2 EC50 [5]: inactive
3 | – | – | – | – | – | – | – | – | – | – | – | – | – | – | Cc1cc(C)c2c(n1)sc1c(N3CC4(COC4)C3)ncnc12 [VU6007215] | 63 | 0.206 | 0.019 | fu,plasma (h) [12]: 0.056
4 | – | – | – | – | – | – | – | – | – | – | – | – | – | – | Cc1nc2sc(C(=O)NCc3ccncc3)c(N)c2c(C)c1Cl [ML253] | – | – | – | IC50 [16]: < 100 nM; IC50 [17]: 700 nM; IC50 [18]: 120 nM
5 | – | – | – | – | – | – | – | – | – | – | – | – | – | – | COc1ccc(CNC(=O)c2sc3nc(C)cc(C)c3c2N)cc1 [VU0152100] | 65 | 0.011 | 0.045 | –
